Data published in article PMC4932537, “Search for Potent and Selective Aurora A Inhibitors Based on General Ser/Thr Kinase Pharmacophore Model” (Pharmaceuticals, 2016).
Counter-ions that a name gives are not always drawn. Like-named read-outs stand apart in the source and are kept apart here. Values belong to the compound of their own block, whether it stands above or below them.

Assays:
Haspin = biological target: T1, Haspin (Homo sapiens, UniProt Q8TF76); experiment: Haspin kinase inhibition; format: biochemical; settings: Table 1
T1 sequence (Q8TF76 1-798): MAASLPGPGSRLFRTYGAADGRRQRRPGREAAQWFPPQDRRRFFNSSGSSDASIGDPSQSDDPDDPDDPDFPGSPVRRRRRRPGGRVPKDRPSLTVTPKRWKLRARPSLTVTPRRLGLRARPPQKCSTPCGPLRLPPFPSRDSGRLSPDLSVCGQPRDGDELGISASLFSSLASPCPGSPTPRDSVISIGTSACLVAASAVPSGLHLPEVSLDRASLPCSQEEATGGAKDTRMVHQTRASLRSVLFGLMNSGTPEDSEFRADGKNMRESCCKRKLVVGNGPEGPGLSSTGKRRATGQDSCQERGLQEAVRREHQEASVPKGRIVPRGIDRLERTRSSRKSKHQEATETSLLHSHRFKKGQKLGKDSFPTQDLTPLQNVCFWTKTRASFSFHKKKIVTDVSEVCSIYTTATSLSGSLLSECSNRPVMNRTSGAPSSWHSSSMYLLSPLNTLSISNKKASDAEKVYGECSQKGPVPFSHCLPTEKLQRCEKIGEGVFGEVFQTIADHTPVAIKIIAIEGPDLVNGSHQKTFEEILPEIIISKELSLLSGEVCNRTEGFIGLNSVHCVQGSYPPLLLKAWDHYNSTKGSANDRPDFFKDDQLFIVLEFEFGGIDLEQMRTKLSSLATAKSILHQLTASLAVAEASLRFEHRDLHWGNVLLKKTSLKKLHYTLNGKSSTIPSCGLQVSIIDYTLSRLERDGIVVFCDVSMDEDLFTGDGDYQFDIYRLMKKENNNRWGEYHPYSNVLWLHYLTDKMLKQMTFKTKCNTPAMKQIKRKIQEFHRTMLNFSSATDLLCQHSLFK
From the text: Table 1 Activity of compounds fitting to general pharmacophore model against selected Ser/Thr kinases. | column: Haspin, IC50, μM

Aurora A = biological target: T2, Aurora A (Homo sapiens, UniProt O14965); experiment: Aurora A kinase inhibition (biochemical assay)
T2 sequence (O14965 1-403): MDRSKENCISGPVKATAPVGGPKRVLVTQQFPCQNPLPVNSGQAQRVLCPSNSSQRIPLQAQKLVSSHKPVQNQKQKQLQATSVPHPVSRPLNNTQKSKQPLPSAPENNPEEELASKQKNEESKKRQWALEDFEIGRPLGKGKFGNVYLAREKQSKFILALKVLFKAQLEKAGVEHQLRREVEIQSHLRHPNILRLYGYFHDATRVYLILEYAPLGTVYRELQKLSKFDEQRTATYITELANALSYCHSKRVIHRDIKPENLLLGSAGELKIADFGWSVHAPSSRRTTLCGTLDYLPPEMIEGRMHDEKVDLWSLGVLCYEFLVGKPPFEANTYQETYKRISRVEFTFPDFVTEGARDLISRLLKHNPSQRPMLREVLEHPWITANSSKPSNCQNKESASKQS

Aurora B = Aurora B (Homo sapiens, UniProt Q96GD4); experiment: Aurora B kinase inhibition; format: biochemical; settings: Table 1
Aurora B, sequence (Q96GD4 whole entry): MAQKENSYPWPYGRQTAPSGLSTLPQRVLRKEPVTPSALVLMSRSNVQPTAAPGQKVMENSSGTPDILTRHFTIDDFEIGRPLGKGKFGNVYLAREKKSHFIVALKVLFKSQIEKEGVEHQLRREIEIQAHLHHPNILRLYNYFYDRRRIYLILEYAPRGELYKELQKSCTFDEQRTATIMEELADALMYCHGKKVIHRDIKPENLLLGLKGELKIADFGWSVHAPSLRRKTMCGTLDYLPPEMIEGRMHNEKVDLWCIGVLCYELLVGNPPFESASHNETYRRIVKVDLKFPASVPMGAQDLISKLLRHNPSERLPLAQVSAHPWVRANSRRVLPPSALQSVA

[1] = test system: Colo-320 (colon carcinoma); experiment: MTT cytotoxicity, Colo-320; format: cell-based; settings: Homo sapiens; Colo-320, MTT, 72 h
From the text: (§1) All cells lines were purchased in ATCC (Manassas, VA, USA), except for human primary fibroblasts (HFB), which were a generous gift from Dashinimaev E.B. (Koltsov Institute of Developmental Biology). H1299 (lung adenocarcinoma), H23 (lung adenocarcinoma), Colo320 (colon carcinoma), RS4;11 (acute lymphoblastic leukemia), PC3 (prostate adenocarcinoma) and HL-60 (acute promyelocytic leukemia) were cultivated in RPMI-1640 medium, with addition of 10% fetal calf serum (HyClone, South Logan, Utah, USA) and 2 mM L-Glutamine at 37 °C, 5% CО2. MDA-MB-453 (mammary adenocarcinoma), A549 (lung adenocarcinoma), HCT-116 (colon carcinoma), A431 (epidermoid carcinoma), MDA-MB-231 (mammary adenocarcinoma), BxPC3 (pancreatic adenocarcinoma), MEF (mouse embryonic fibroblasts, SV-40 immortalized), MEF Bax^−/−/Bak^−/− knockout cells (mouse embryonic fibroblasts, SV-40 immortalized, resistant to apoptosis) were cultivated in DMEM medium, with addition of 10% fetal calf serum (HyClone) and 2 mM L-Glutamine at 37 °C, 5% CО2.
(§2) Cells were seeded in 96-well plates (Corning, NY, USA): 5000 cells per well for adhesive cultures and cells, 25,000 cells per well for suspension cultures. Analyzed substances were added in 0.1–50 μM concentration range, with 2 × dilutions, and incubated for 72 h at 37 °C, 5% CО2. After incubation 20 uL of 5 mg/mL of water solution of 3-(4,5-dimethylthiazol-2-yl)-2,5-diphenyltetrazolium bromide (MTT, PANEKO, Moscow, Russia) was added to the cells and they were incubated for additional 4 h. After the incubation the medium was aspirated, cells were dissolved in 100 uL of DMSO and the optical density was measured at 570 nm with a МultiscanFC plate reader (ThermoScientific, Cambridge, MA, USA). The percentage of surviving cells at each dose was calculated by dividing the optical density of treated cells by the optical density of untreated control (which was taken as 100%). The IC50s were calculated in GraphPad Prism 5.0.

[2] = test system: BxPC3 (pancreatic adenocarcinoma); experiment: MTT cytotoxicity, BxPC3; format: cell-based; settings: Homo sapiens, BXPC-3, 72 h
From the text: as §1, §2

[3] = test system: HCT-116 (colon carcinoma); experiment: MTT cytotoxicity, HCT-116; format: cell-based; settings: Homo sapiens; HCT-116, MTT, 72 h
From the text: as §1, §2

[4] = MTT cytotoxicity, MEFs Dko; format: cell-based; settings: mouse, MEFs Dko (bax−/−bak−/−)
From the text: as §1, §2

[5] = test system: MDA-MB231 (mammary adenocarcinoma); experiment: MTT cytotoxicity, MDA-MB231; format: cell-based; settings: Homo sapiens, MDA-MB-231, 72 h
From the text: as §1, §2

[6] = test system: HL-60 (acute promyelocytic leukemia); experiment: MTT cytotoxicity, HL-60; format: cell-based; settings: Homo sapiens; HL-60, MTT, 72 h
From the text: as §1, §2

MTT cytotoxicity, HFB = format: cell-based; settings: human, human primary fibroblasts (HFB)
From the text: as §1, §2

[7] = test system: H1299 (lung adenocarcinoma); experiment: MTT cytotoxicity, H1299; format: cell-based; settings: Homo sapiens, NCI-H1299, 72 h
From the text: as §1, §2

[8] = test system: RS4;11 (acute lymphoblastic leukemia); experiment: MTT cytotoxicity, RS4;11; format: cell-based; settings: Homo sapiens; RS4;11, MTT, 72 h
From the text: as §1, §2

[9] = test system: H23 (lung adenocarcinoma); experiment: MTT cytotoxicity, H23; format: cell-based; settings: 72 h
From the text: as §1, §2

MTT cytotoxicity, MEF WT = format: cell-based; settings: mouse
From the text: as §1, §2

[10] = test system: A-549 (lung adenocarcinoma); experiment: MTT cytotoxicity, A-549; format: cell-based; settings: Homo sapiens, A549; A-549, MTT, 72 h
From the text: as §1, §2

[11] = test system: PC3 (prostate adenocarcinoma); experiment: MTT cytotoxicity, PC3; format: cell-based; settings: 72 h
From the text: as §1, §2

[12] = test system: A431 (epidermoid carcinoma); experiment: MTT cytotoxicity, A431; format: cell-based; settings: Homo sapiens, A-431, 72 h
From the text: as §1, §2

[13] = test system: MDA-MB-453 (mammary adenocarcinoma); experiment: MTT cytotoxicity, MDA-MB-453; format: cell-based; settings: Homo sapiens; MDA-MB-453, MTT, 72 h
From the text: as §1, §2

[14] = Table 1, read-out: Aurora A, IC50
[15] = Table 2, Mean ± SEM, four repeats, read-out: Aurora A kinase inhibition IC50

IC50 (Haspin): 3.67 ± 0.37 µM
IC50 (Aurora A; [14]): 2.79 ± 0.3 µM
IC50 (Aurora B): 2.25 ± 0.23 µM
Compound: CCCc1cnc(Nc2cc(C(C)C)nc(C3CCN(C(=O)C(C)(C)N)CC3)n2)s1 [Compound 7, 2-Amino-1-(4-(4-isopropyl-6-(5-propylthiazol-2-ylamino)pyrimidin-2-yl)piperidin-1-yl)-2-methylpropan-1-one]

melting point: 207 to 209 °C
IC50 (Aurora A; [15]): 0.0351 ± 0.00036 µM
Compound: Cc1cc(Nc2nccs2)nc(CC2CCN(C(=O)c3cccc(Cl)c3F)CC2)n1 [Compound 12, (3-Chloro-2-fluoro-phenyl)-{4-[4-methyl-6-(thiazol-2-ylamino)-pyrimidin-2-ylmethyl]-piperidin-1-yl}-methanone]
IC50 [1]: 2 ± 0.15 µM
IC50 [2]: 6 ± 0.59 µM
IC50 [3]: 6.5 ± 0.7 µM
IC50 at 48 h [4]: 11.8 ± 1.2 µM
IC50 [5]: 28.2 ± 0.3 µM
IC50 [6]: 39.8 ± 3.4 µM
IC50 at 72 h (MTT cytotoxicity, HFB): 3.8 ± 0.4 µM
IC50 [7]: 5 ± 0.4 µM
IC50 [8]: 1.5 ± 0.2 µM
IC50 [9]: 6.8 ± 0.5 µM
IC50 at 48 h (MTT cytotoxicity, MEF WT): 5.8 ± 0.5 µM
IC50 [10]: 10 ± 1.2 µM
IC50 [11]: 6 ± 0.7 µM
IC50 [12]: 10.2 ± 1.2 µM
IC50 [13]: 16.3 ± 1.7 µM

IC50 (Haspin): 7.06 ± 0.68 µM
IC50 (Aurora A; [14]): 1.95 ± 0.22 µM
IC50 (Aurora B): 1.76 ± 0.16 µM
Compound: CCCc1cnc(Nc2cccc(C3CCN(C(=O)CN(C)C)CC3)n2)s1 [Compound 3, 2-(Dimethylamino)-1-(4-(6-(5-propylthiazol-2-ylamino)pyridin2-yl)piperidin-1-yl)ethanone]

IC50 (Haspin): 2.9 ± 0.43 µM
IC50 (Aurora A; [14]): 3.58 ± 0.43 µM
IC50 (Aurora B): 2.05 ± 0.24 µM
Compound: CCCc1cnc(Nc2cc(CC)nc(C3CCN(C(=O)C(C)(C)N)CC3)n2)s1 [Compound 8, 2-Amino-1-(4-(4-ethyl-6-(5-propylthiazol-2-ylamino)pyrimidin-2-yl)piperidin-1-yl)-2-methylpropan-1-one]

IC50 (Haspin): 0.08 ± 0.008 µM
IC50 (Aurora A; [14]): 2.08 ± 0.25 µM
IC50 (Aurora B): 1.72 ± 0.19 µM
Compound: CCCc1cnc(Nc2cccc(C3CCN(C(=O)CN)CC3)n2)s1 [Compound 4, 2-Amino-1-(4-(6-(5-propylthiazol-2-ylamino)pyridin-2-yl)piperidin-1-yl)ethanone]

melting point: 211 to 213 °C
IC50 (Aurora A; [15]): 0.012 ± 0.0011 µM
Compound: Cc1cc(Nc2ncc(C)s2)nc(CC2CCN(C(=O)c3cccc(Cl)c3F)CC2)n1 [Compound 11, (3-Chloro-2-fluoro-phenyl)-{4-[4-methyl-6-(5-methyl-thiazol-2-ylamino)-pyrimidin-2-ylmethyl]-piperidin-1-yl}-methanone]
IC50 [1]: 0.8 ± 0.09 µM
IC50 [2]: 2 ± 0.021 µM
IC50 [3]: 3 ± 0.4 µM
IC50 at 48 h [4]: 3.1 ± 0.32 µM
IC50 [5]: 7.3 ± 0.8 µM
IC50 [6]: 5.4 ± 0.3 µM
IC50 at 72 h (MTT cytotoxicity, HFB): 3.6 ± 0.4 µM
IC50 [7]: 1.7 ± 0.2 µM
IC50 [8]: 0.5 ± 0.04 µM
IC50 [9]: 3.9 ± 0.15 µM
IC50 at 48 h (MTT cytotoxicity, MEF WT): 1 ± 0.2 µM
IC50 [10]: 5.6 ± 0.5 µM
IC50 [11]: 3.2 ± 0.2 µM
IC50 [12]: 4.6 ± 0.5 µM
IC50 [13]: 10 ± 1.2 µM

IC50 (Haspin): 0.43 ± 0.034 µM
IC50 (Aurora A; [14]): 1.44 ± 0.13 µM
IC50 (Aurora B): 0.91 ± 0.08 µM
Compound: CCCc1cnc(Nc2cccc(C3CCN(C(=O)CNC)CC3)n2)s1 [Compound 5, 2-(Methylamino)-1-(4-(6-(5-propylthiazol-2-ylamino)pyridin-2-yl)piperidin-1-yl)ethanone]

IC50 (Haspin): 1.12 ± 0.11 µM
IC50 (Aurora A; [14]): 1.67 ± 0.17 µM
IC50 (Aurora B): 1.75 ± 0.18 µM
Compound: CCCc1cnc(Nc2cccc(C3CCN(C(=O)[C@@H](C)N)CC3)n2)s1 [Compound 6, (R)-2-Amino-1-(4-(6-(5-propylthiazol-2-ylamino)-pyridin-2-yl)piperidin-1-yl)propan-1-one]

IC50 (Haspin): 1.49 ± 0.15 µM
IC50 (Aurora A; [14]): 2.06 ± 0.15 µM
IC50 (Aurora B): 1.45 ± 0.17 µM
Compound: CCCc1cnc(Nc2cccc(C3CCN(C(=O)C(C)(C)N)CC3)n2)s1 [Compound 1, 2-Amino-2-methyl-1-(4-(6-(5-propylthiazole-2-ylamino)pyridin-2-yl)piperidin-1-yl)propan-1-one hydrochloride]

IC50 (Haspin): 0.27 ± 0.019 µM
IC50 (Aurora A; [14]): 3.17 ± 0.33 µM
IC50 (Aurora B): 8.02 ± 0.8 µM
Compound: CC(C)(N)C(=O)N1CCC(c2cccc(Nc3ncc(-c4ccccc4)s3)n2)CC1 [Compound 9, 2-Amino-2-methyl-1-(4-(6-(5-phenylthiazol-2-ylamino)pyridine-2-yl)propan-1-one hydrochloride]

IC50 (Haspin): 7.8 ± 0.81 µM
IC50 (Aurora A; [14]): 8.38 ± 0.84 µM
IC50 (Aurora B): 0.84 ± 0.09 µM
Compound: O=C(C1CNCCO1)N1CCC(c2cccc(Nc3ncc(-c4ccccc4)s3)n2)CC1 (stereo not drawn) [Compound 10, Morpholin-2-yl(4-(6-(5-phenylthiazol-2-ylamino)pyridin-2-yl)piperidin-1-yl)methanone]

melting point: 120 to 122 °C
IC50 (Aurora A; [15]): 0.0175 ± 0.0021 µM
Compound: Cc1cc(Nc2cccc(CC3CCN(C(=O)c4cccc(Cl)c4F)CC3)n2)[nH]n1 [Compound 15, (3-Chloro-2-fluoro-phenyl)-{4-[6-(5-methyl-2H-pyrazol-3-ylamino)-pyridin-2-ylmethyl]-piperidin-1-yl}-Methanone]
IC50 [1]: 1 ± 0.12 µM
IC50 [2]: 7.2 ± 0.6 µM
IC50 [3]: 2.8 ± 0.3 µM
IC50 at 48 h [4]: 3 ± 0.2 µM
IC50 [5]: > 50 µM
IC50 [6]: 38.8 ± 3.2 µM
IC50 at 72 h (MTT cytotoxicity, HFB): 3 ± 0.2 µM
IC50 [7]: 3.7 ± 0.3 µM
IC50 [8]: 0.1 ± 0.02 µM
IC50 [9]: > 50 µM
IC50 at 48 h (MTT cytotoxicity, MEF WT): 0.9 ± 0.08 µM
IC50 [10]: 5.7 ± 0.6 µM
IC50 [11]: 9.7 ± 1 µM
IC50 [12]: 6.8 ± 0.7 µM
IC50 [13]: 5.7 ± 0.6 µM
